The subject of one assay is ERα. As to the kind of experiment: ERα down-regulation and polyubiquitination in MCF-7 cells. Format: cell-based, human. Conditions: MCF-7, E2 in the presence of MG132, no peptide. The procedure:
FIG. 4-5 is a diagram illustrating that the ERAP1-peptide promotes nuclear translocation of PHB2. […] Then, the protein level and the mRNA level for the expression of ERα were obtained by Western blotting (the upper panel: Protein) and semi-quantitative RT-PCR (the lower panel: mRNA), respectively. β-actin is a loading control for each. […] MCF-7 cells were treated with the ERAP1-peptide and/or E2 in the presence of 1 μM MG-132 for 1 hour. Then, the cell lysate was immunoprecipitated with anti-ERα antibody.
Down-regulation of ERα was evaluated by semi-quantitative reverse transcription PCR. Complete RNA was extracted using RNeasy Mini purification kit (Qiagen) from E2-treated cells in the presence or in the absence of the ERAP1 peptide, and reverse-transcribed into cDNA using Superscript II reverse transcriptase (Invitrogen), oligo dT primer (nvitrogen) and 25 mM dNTP Mixture (Invitrogen). mRNAs of ERα and β-actin were measured with GeneAmp PCR system (Applied Biosystems, Foster, Calif., USA). The primers are as described below: […]

Assay [1] concerns the target T1, binding of inherent ERAP1 and inherent PHB2/REA (Homo sapiens, UniProt Q99623).
T1 construct: endogenous in cells; host or cells: MCF-7 and KPL-3C breast cancer cells
Kind of assay: Inhibition of ERAP1-PHB2/REA binding in cells, immunoprecipitation-Western blotting. Format: cell-based. The following applies: MCF-7 and KPL-3C cells; 10 μM peptide; 10 nM E2 24 hours. In general terms: Immunoblotting shows a protein as a band on a membrane.

Assay [2] relates to transcriptional activity of ERα (ERE). Kind of assay: ERE-luciferase reporter assay in MCF-7 cells. Conditions: 10 nM E2 24 hours. Format: cell-based, human. The procedure: FIG. 3-2 is a diagram illustrating promotion effect of PHB2 nuclear translocation and suppression effect of the transcriptional activation of ER by ERAP1-peptide treatment. (C) illustrates representative images of stained immune cells, showing the localization of the ERAP1-peptide (HA-tagged ERAP1-peptide) and PHB2. MCF-7 cells were treated with 10 μM HA-tagged ERAP1-peptide for 24 hours in the presence or in the absence of 10 nM E2. After the immobilization, the cells were subjected to immunonfluorescent staining using an anti-HA antibody, an anti-PHB2 antibody and DAPI (for discriminating the nucleus). The arrow indicates the nuclear-translocated ERAP1-peptide. […] Then, immediately, the cells were stimulated with 10 nM E2 for 24 hours. TAM indicates the tamoxifen treatment.
(§1) FIG. 3-3 is as diagram illustrating the results of the luciferase assay by which the inhibition effect of the ERAP1-peptide was evaluated. MCF-7 cells temporarily transfected with an ERE-luciferase reporter vector (F) or an AP-1-luciferase reporter vector (F) were treated with the ERAP1-peptide, the scramble peptide or the mutant peptide in the concentrations shown in the […]. Then, immediately, the cells were stimulated with 10 nM E2 for 24 hours. TAM indicates the tamoxifen treatment.
(§2) FIG. 4-3 is a diagram illustrating that the ERAP1-peptide promotes nuclear translocation of PHB2. (C) and (D) are figures that show the results of the luciferase assay by which the inhibition effect of the ERAP1-peptide on the ERα transcriptional activity was evaluated. MCF-7 cells temporarily transfected with an ERE-luciferase reporter vector (C) or an AP-1-luciferase reporter vector (D) were treated with the ERAP1-peptide in the concentrations shown in the figure or 10 nM tamoxifen. Then, immediately, the cells were stimulated with 10 nM E2 thr 24 hours.
(§3) For ERE reporter assay, MCF-7 cells were transfected with ERE reporter (SABiosciences, Frederick, Md., USA) in accordance with the instruction of the manufacturer. For AP-1 reporter assay, MCF-7 cells were transfected with AP-1 reporter (mouse IL-11 promoter comprising two tandem AP-1 sites subcloned into PGL2-basic vector), c-fos, c-Jun and pRL-TK as an internal standard. After 16 hours from the transfection, the culture medium was exchanged with an assay culture medium (Opti-MEM, 10% FBS, 0.1 mM NEAA, 0.1 mM Sodium pyruvate and 10 μg/ml insulin) After 24 hours from the transfection, the cells were treated with E2 and/or the ERAP1-peptide or 24 hours. The cells were harvested, and the activities of luciferase and Renilla-luciferase were evaluated using Promega dual luciferase reporter assay (Tokyo, Japan). In consideration of the transfection efficiency, all of the data were standardized by the activity of Renilla-luciferase.

The test system of assay [3] is transcriptional activity of ERα (AP-1). Kind of assay: AP-1-luciferase reporter assay in MCF-7 cells. Format: cell-based, human. Conditions: 10 nM E2 24 hours. The procedure: as §1, §2, §3
(In general: A reporter such as luciferase makes a cellular process visible.)

A further assay deals with MCF-7 cells. Kind of assay: E2-dependent cell proliferation assay (MTT/CCK-8), MCF-7. The following applies: 10 nM E2, up to 24 hours. Format: cell-based, human. As to the method: FIG. 6-1 is a diagram illustrating that ERAP1-peptide treatment suppresses ERα-dependent cell proliferation of breast cancer cell lines. (A) and (B) show the results of MTT assay by which the inhibition effect of the ERAP1-peptide in the E2-dependent cell proliferation was evaluated. MCF-7 cells were treated with the ERAP1-peptide (A, B) the ERAP1-scramble peptide (B) or the ERAP1-mutant peptide (B).
FIG. 7-1 is a diagram illustrating that ERAP1-peptide treatment suppresses ERα-dependent cell proliferation of breast cancer cell lines. […] KPL-3C cells were treated with the ERAP1-peptide, the scramble peptide or the mutant peptide. Then, immediately, the cells were stimulated with 10 nM E2 for 24 hours. […] Then, immediately, the cells were stimulated with 10 nM E2. Then, the ERAP1-peptide was added every day for […]. […] The arrow indicates addition of the ERAP1-peptide.
FIG. 7-3 is a diagram illustrating that ERAP1-peptide treatment suppresses ERα-dependent cell proliferation of breast cancer cell lines. […] MCF-7 cells were treated with 10 μM ERAP1-peptide. Then, immediately, the cells were stimulated with 10 nM E2 (white square). Then, 10 μM ERAP1-peptide was added every day for four days (black square).
FIG. 20 is a diagram illustrating the results of evaluations for the influence of the difference of the sequence on E2-dependent cell proliferation suppression effect. […] Then, immediately, the cells were stimulated with E2 for 24 hours.
MCF-7 cells were suspended in MEM (Invitrogen, Carlsbad, Calif., USA) reinforced with 10% FBS (Nichirei Biosciences, Tokyo, Japan), 1% antibiotic/antimycotic solution (Invitrogen), 0.1 mM NEAA (Tnvitrogen), 1 mM sodium pyruvate and 10 μg/ml insulin (Sigma, St. Louis, Mo., USA). Then, the cell suspension was seeded in a 48-well plate (2×10^4 cells/200 μl), a 24-well plate (1×10^5 cells/1 ml), a 6-well plate (5×10^5 cells/2 ml) or 10 cm dish (2×10^6 cells/10 ml). The cells were maintained at 37° C. in humidified atmosphere containing 5% carbon dioxide. On the next day of the seeding, the culture medium was exchanged with phenol red-free DMEM/F12 (Invitrogen) reinforced with FBS, an antibiotic/antimycotic solution, NEAA, sodium pyruvate and insulin. After 24 hours, the cells were treated with 10 nM 17β estradiol (E2, Sigma). The ERAP-1 peptide was added just before the E2 stimulation in the inhibition test.
Using Cell-Counting Kit-8 (CCK-8, Dojindo, Kumamoto, Japan), the cell proliferation assay was performed. […] Then, the absorbance at 450 nm was measured and the number of living cells in each well was calculated.
The cell proliferation assay was evaluated using Cell-Counting Kit-8 (CCK-8, Dojindo, Kumamoto, Japan). […] Then, 100 μl from each well was moved to a 96-well plate, and the absorbance at 450 nm was measured with a microplate reader.

Assay [4] has as its system phosphorylation of ERAP1 and PHB2/REA. Kind of assay: PKA inhibition by H-89, immunoblotting of ERAP1 and PHB2/REA phosphorylation, MCF-7. The format is cell-based, human. As to the method:
Then, the cell lysate solution was immunoprecipitated with anti-ERAP1 antibody. Furthermore, the phosphatase activity of the obtained sample was calculated. […] MCF-7 cells suppressed for expression of PKA or PKB, or both of PKA and PKB by siRNA method, were treated with 10 μM ERAP1 peptide. Then, immediately, the cells were stimulated with 10 nM E2 for 24 hours. […] MCF-7 cells were treated with H-89 for 30 minutes and washed with PBS. Then, the cells were treated with 10 μM ERAP1-PEPTIDE. Then, immediately, the cells were stimulated with 10 nM E2 for 24 hours. […] (S39) is caused. MCF-7 cells suppressed for expression of PKA by siRNA method, were stimulated with 10 nM E2 for 24 hours. In addition, MCF-7 cells were treated with H-89 for 30 minutes and washed with PBS. Then, immediately, the cells were stimulated with 10 nM E2 for 24 hours. […] Then, immediately, the cells were stimulated with 10 nM E2 for 24 hours. […] MCF-7 cells suppressed for expression of PKCα by siRNA method were treated with 10 μM ERAP1 peptide. Then, immediately, the cells were stimulated with 10 nM E2 for 24 hours. The cells were fractionated into cytoplasm and nuclear fractions by specific gravity centrifugation.

[5] abbreviates: H-89 30 minutes, then E2 24 hours.
The mark [6] stands for this setting: comparison with siPKA, increasing dose of H-89.

Where a SMILES comes first, the peptide text is derived from it. The star is where a group is joined. Cbz = O=C(OCc1ccccc1)*

T1 sequence (Q99623 2-299 limits assumed): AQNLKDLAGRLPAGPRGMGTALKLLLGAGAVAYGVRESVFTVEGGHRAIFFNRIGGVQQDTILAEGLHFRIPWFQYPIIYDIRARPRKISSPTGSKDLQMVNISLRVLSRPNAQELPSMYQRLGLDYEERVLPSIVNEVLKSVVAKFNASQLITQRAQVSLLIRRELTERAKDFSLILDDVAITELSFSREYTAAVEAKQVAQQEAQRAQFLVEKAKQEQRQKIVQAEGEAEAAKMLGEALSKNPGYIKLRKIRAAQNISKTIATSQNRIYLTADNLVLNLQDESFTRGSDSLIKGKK

For `CC(C)C[C@@H](C=O)NC(=O)[C@H](CC(C)C)NC(=O)[C@H](CC(C)C)NC(=O)OCc1ccccc1` [MG132, reference compound] (Cbz-Leu-Leu-Leu-aldehyde), the “protein decrease and polyubiquitination of ERα with E2” value in the assay with ERα was “the protein decrease of ERα was suppressed and polyubiquitination of ERα was recognized”.

Turning to “AMLSALTLALRQR (SEQ ID NO: 29) (ERAP1-mutant peptide)”, the “inhibition of the binding of inherent ERAP1 and inherent PHB2/REA” value in assay [1] is listed as “not recognized in any of the cells”. For the same compound, the “transcriptional activity of ERα in ERE” value in assay [2] is listed as “no change was recognized”. The “transcriptional activity of ERα in AP-1” value in assay [3] is reported as “no change was recognized”.

Consider “ATLSQMLSDLTLQ (SEQ ID NO: 30) (ERAP1 dominant negative peptide) [ERAP1-peptide-2, 161-173 amino acid residues of ERAP1]”, for which the E2-dependent cell proliferation entry in the assay with MCF-7 cells is reported as “suppressed the E2-dependent cell proliferation in dose-dependent manner”.

Consider `O=S(=O)(NCCNC/C=C/c1ccc(Br)cc1)c1cccc2cnccc12` [H-89], for which, in assay [4] (setting [5]), the “phosphorylation of the threonine residue of ERAP1” value is “decreased in dose-dependent manner”; the “phosphorylations of the serine and tyrosine residues of ERAP1” value is given as “remarkably decreased at 0.5 μM”. Besides, in assay [4] (setting [6]), the “Ser39 phosphorylation of PHB2/REA after E2 treatment” value is “as the dose of H-89 increased, Ser39 phosphorylation of PHB2/REA also decreased” and the “phosphorylation of the serine residue of ERAP1 after E2 treatment” value was “as the dose of H-89 increased, disappearance of the phosphorylation was confirmed”. Moreover, the “phosphorylation of Ser39 of PHB2/REA” value in assay [4] (stimulated by E2 and treated with H-89, no peptide) is on record as “remarkable recovery was recognized”. In assay [4] (with ERAP-peptide, 20 μM H-89), the “phosphorylation of Ser39 of PHB2/REA” value is recorded as “the phosphorylation completely disappeared”.

These data come from patent publication US9725490B2, “ERAP1-derived peptide and use thereof” (TOKUSHIMA UNIVERSITY, priority 2011, dated 2017).
